{"source": "patent US20260085087A1", "about": "“CHEMICAL COMPOUND COMPRISING A TRIAZINE GROUP AND METHOD FOR PRODUCING SAME” (priority 2020, published 2026)", "key": {"HEK293T cells [1]": {"system": "HEK293T cells", "assay": "HEK293T cell transfection efficiency by flow cytofluorometry", "type": "cell-based, human", "settings": "4 hours", "procedure": "(§1) To study cell penetration efficiency, oligonucleotide 5′-[FAM]-CTGACTATGAAGTAT*T-3′ (OSN4F) was used, wherein * is a position of thiazinylamidophosphate unit carrying two dodecyl moieties, and control unmodified oligonucleotide 5′-[FAM]-CTGACTATGAAGTATT-3′ (OSNF).\n(§2) Cultured HEK293T and T98G human cells were plated onto the wells of a 24-well microplate in a concentration 20×10^4 cells/well (HEK293T) or 12×10^4 cells/well (T98G) in 500 μl/well IMDM media comprising 10% FBS and 1% solution of antibiotic and antimycotic agents (10 mg/ml streptomycin, 10,000 U/ml penicillin, and 25 mg/ml amphotericin (IMP Biomedicals, Germany) (hereinafter, the complete medium), and incubated for 18 hrs to provide cell attachment. Furthermore, cell medium was replaced with 200 μl/well IMDM medium in the absence of serum and antibiotic agents. Oligonucleotides (OSNF, OSN4F) were dissolved in Opti-MEM and added to the cells until the final concentration of 1 or 5 μM (50 μl/well) was achieved. […] The cells were analyzed on a flow cytometer NovoCyte 3000 (ACEA Biosciences, USA). […] Oligonucleotide penetration efficiency was characterized by two indicators: % of fluorescent cells in a population and average intensity of cell fluorescence in a sample, which were measured using flow cytometry in 4 hours after transfection. […] RFU means relative fluorescence units, LF means Lipofectamine 2000. […]"}, "T98G cells": {"system": "T98G cells", "assay": "T98G cell transfection efficiency by flow cytofluorometry", "type": "cell-based, human", "settings": "4 hours", "procedure": "as §1, §2"}, "HEK293T cells [2]": {"system": "HEK293T cells", "assay": "Confocal microscopy of penetration into human cells", "type": "cell-based", "settings": "1 μM, 4 hours, no serum", "procedure": "In this study, oligonucleotide 5′-[FAM]-CTGACTATGAAGTAT*T-3′ (OSN4F) was used, wherein * is a position of triazinylamidophosphate unit having two dodecyl moieties.\nCultured human cells HEK293T were plated on slides placed to the wells of the 24-well microplate, in a concentration of 6×10^4 cells/well in a complete IMDM medium and incubated at 37° C. in 5% CO2 for 12 to 18 hours to provide cell attachment. Then, the medium was replaced to IMDM, in the absence of serum and antibiotic agent, which comprises OSN4F at a concentration of 1 μM. The cells were incubated in the presence of oligonucleotide at 37° C. in 5% CO2 for 4 hours. […]\nIntracellular location of oligonucleotide OSN4F was studied using confocal microscope LSM710 (Zeiss, Germany) with the plan-apochromat 63×/1.40 Oil DIC M27 (Zeiss, Germany) lens and two channels, blue and green. Fluorescence in a blue channel at exciting laser wavelength of 405 nm corresponded to NucBlue (cell nuclei staining); green channel at exciting laser wavelength of 488 nm corresponded to fluorescence of oligonucleotide OSN4F labelled with a 6-carboxyfluorescein moiety."}, "HEK293T cells [3]": {"system": "HEK293T cells", "assay": "Comparison of cell penetration efficiency of oligonucleotides with lipophilic moieties in various modification backbones", "type": "cell-based, human", "settings": "4 hours after transfection", "procedure": "Cultured HEK293T and T98G human cells were plated onto the wells of a 24-well microplate in a concentration 20×10^4 cells/well (HEK293T) or 12×10^4 cells/well (T98G) in 500 μl/well IMDM media comprising 10% FBS and 1% solution of antibiotic and antimycotic agents (10 mg/ml streptomycin, 10,000 U/ml penicillin, and 25 mg/ml amphotericin (IMP Biomedicals, Germany) (hereinafter, the complete medium), and incubated for 18 hrs to provide cell attachment. Furthermore, cell medium was replaced with 200 μl/well IMDM medium in the absence of serum and antibiotic agents. Oligonucleotides (OSNF, OSN4F) were dissolved in Opti-MEM and added to the cells until the final concentration of 1 or 5 μM (50 μl/well) was achieved. […] The cells were analyzed on a flow cytometer NovoCyte 3000 (ACEA Biosciences, USA). […] Oligonucleotide penetration efficiency was characterized by two indicators: % of fluorescent cells in a population and average intensity of cell fluorescence in a sample, which were measured using flow cytometry in 4 hours after transfection. Histograms A and C show % of fluorescent cells, histograms B and D show average fluorescence intensity. RFU means relative fluorescence units, LF means Lipofectamine 2000. […]\nCell fluorescence percent (left) and average fluorescence intensity (right) were measured using flow cytometry in 4 hours after transfection. […]"}}, "note": "[TzD] = triazinylamidophosphate internucleotide linkage carrying two dodecyl amine moieties; {FAM} = fluorescein (FAM) label"}
{"substance": "5′-[FAM]-CTGACTATGAAGTAT*T-3′ (CTGACTATGAAGTATT; DNA, linkages o14 [TzD]1 (s phosphorothioate, o phosphodiester), 5' {FAM}, methylation of C not given here) [OSN4F, * is a triazinylamidophosphate unit carrying two dodecyl moieties]", "values": [{"measurement": "penetration efficiency (number of transfected cells and fluorescence intensity)", "setting": "HEK293T cells [1]; 1 or 5 μM, no additional transfection agent", "result": "efficiently penetrates the HEK293T cells"}, {"measurement": "penetration efficiency relative to control OSNF with Lipofectamine 2000", "setting": "HEK293T cells [1]; OSN4F without transfection agent", "result": "comparable"}, {"measurement": "penetration efficiency relative to control oligonucleotide", "setting": "T98G cells; 1 or 5 μM, no additional transfectants", "result": "penetrates the T98G cells more efficiently than the control oligonucleotide"}, {"measurement": "penetration efficiency in T98G relative to HEK293T cells", "setting": "T98G cells", "result": "reduced relative to the HEK293K kidney cells"}, {"measurement": "intracellular location", "setting": "HEK293T cells [2]", "result": "positioning in the cytoplasm and various cell compartments"}, {"measurement": "penetration rate (cell fluorescence percent) relative to PGO, PN, ODF", "setting": "HEK293T cells [3]; 1 μM", "result": "significantly higher than in other oligonucleotides used"}, {"measurement": "average fluorescence intensity relative to other oligonucleotides", "setting": "HEK293T cells [3]", "result": "penetrates cells in larger amounts than other oligonucleotides"}]}
